Calls of active or inactive are those of the source. Cut-off read from the data, not from the text of the source, for most assays here: actives have a measured Kd and inactives only a lower limit.
What was measured:
[1] = molecular target: T1, Calcium/calmodulin-dependent protein kinase type IV (Homo sapiens, UniProt Q16566)
T1 sequence (Q16566 whole entry): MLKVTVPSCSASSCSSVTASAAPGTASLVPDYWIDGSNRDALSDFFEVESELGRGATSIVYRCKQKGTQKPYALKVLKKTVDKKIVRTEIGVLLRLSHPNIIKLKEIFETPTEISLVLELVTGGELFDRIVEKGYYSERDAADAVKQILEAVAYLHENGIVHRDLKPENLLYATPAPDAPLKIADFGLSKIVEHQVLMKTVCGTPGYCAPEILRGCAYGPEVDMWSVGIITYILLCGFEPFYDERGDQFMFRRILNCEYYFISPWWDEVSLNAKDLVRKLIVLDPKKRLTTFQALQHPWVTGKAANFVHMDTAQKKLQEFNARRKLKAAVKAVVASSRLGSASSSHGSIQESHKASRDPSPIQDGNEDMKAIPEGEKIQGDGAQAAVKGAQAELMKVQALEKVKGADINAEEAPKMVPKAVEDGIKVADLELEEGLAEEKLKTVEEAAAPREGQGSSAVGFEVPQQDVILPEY

[2] = molecular target: Tyrosine-protein kinase Lyn (Homo sapiens, UniProt P07948)
Tyrosine-protein kinase Lyn, sequence (P07948 whole entry): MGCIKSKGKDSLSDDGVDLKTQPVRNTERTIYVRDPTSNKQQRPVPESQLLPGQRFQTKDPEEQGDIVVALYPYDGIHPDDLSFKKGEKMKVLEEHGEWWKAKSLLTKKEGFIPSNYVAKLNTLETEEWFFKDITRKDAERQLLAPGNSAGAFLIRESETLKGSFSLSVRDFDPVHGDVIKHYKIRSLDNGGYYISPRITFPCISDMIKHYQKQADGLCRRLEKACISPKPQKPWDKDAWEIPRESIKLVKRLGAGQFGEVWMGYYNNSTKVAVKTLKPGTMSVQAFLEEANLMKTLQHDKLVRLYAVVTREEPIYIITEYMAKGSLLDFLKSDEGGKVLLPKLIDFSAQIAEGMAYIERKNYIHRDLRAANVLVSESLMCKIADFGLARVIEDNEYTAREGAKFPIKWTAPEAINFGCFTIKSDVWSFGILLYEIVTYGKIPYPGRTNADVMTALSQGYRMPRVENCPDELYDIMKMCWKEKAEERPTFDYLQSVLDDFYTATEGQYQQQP

[3] = molecular target: Proto-oncogene tyrosine-protein kinase Src (Homo sapiens, UniProt P12931)
Proto-oncogene tyrosine-protein kinase Src, sequence (P12931 2-536 limits assumed): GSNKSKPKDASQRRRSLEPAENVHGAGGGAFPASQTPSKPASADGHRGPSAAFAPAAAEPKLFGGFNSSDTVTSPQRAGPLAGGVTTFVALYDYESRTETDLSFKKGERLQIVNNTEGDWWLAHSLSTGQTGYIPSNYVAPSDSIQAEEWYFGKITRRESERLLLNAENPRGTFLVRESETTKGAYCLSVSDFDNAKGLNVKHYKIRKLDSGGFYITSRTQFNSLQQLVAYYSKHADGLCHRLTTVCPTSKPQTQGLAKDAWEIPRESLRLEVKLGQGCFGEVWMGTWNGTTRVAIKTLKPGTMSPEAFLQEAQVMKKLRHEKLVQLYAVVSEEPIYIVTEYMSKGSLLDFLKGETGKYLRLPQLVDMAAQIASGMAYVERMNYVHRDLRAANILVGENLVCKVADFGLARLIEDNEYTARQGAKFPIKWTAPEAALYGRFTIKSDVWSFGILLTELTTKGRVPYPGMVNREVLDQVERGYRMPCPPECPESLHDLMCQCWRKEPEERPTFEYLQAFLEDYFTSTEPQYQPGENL

Scaffold protein ILK = molecular target: T2, Scaffold protein ILK (Homo sapiens, UniProt Q13418)
T2 sequence (Q13418 whole entry): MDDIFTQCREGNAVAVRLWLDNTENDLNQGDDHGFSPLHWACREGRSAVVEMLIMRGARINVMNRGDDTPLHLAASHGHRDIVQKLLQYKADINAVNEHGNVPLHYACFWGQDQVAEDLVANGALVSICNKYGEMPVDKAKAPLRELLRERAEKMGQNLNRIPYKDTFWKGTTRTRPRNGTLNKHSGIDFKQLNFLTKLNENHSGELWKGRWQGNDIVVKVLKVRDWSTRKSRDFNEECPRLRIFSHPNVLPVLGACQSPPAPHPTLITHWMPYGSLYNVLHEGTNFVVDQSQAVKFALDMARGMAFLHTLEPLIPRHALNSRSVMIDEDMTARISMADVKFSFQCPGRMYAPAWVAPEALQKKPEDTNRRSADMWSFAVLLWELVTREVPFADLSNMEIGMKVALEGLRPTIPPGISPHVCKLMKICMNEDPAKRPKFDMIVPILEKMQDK

[4] = molecular target: Ras-related protein Rab-6A (Homo sapiens, UniProt P20340)
Ras-related protein Rab-6A, sequence (P20340 whole entry): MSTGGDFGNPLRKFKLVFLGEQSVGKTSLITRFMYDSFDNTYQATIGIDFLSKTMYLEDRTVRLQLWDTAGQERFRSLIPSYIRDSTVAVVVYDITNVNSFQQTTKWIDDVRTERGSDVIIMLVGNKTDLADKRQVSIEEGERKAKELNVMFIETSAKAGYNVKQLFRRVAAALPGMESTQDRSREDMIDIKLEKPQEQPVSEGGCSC

[5] = molecular target: T3, Serine/threonine-protein kinase 4 (Homo sapiens, UniProt Q13043)
T3 sequence (Q13043 whole entry): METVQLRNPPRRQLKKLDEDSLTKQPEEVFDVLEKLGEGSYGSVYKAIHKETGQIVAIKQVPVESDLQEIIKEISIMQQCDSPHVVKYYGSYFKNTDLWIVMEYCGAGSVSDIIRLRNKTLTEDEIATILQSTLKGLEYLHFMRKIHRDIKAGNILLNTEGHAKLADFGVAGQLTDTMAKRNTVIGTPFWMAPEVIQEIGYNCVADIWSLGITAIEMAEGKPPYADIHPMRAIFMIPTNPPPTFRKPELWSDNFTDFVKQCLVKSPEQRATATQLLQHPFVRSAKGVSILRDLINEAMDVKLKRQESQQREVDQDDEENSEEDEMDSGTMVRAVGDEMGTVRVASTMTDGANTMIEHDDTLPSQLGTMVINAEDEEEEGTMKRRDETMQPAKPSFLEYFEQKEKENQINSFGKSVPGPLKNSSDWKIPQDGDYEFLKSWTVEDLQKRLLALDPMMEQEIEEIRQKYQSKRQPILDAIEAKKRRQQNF

[6] = molecular target: T4, Mitogen-activated protein kinase kinase kinase 5 (Homo sapiens, UniProt Q99683)
T4 sequence (Q99683 whole entry): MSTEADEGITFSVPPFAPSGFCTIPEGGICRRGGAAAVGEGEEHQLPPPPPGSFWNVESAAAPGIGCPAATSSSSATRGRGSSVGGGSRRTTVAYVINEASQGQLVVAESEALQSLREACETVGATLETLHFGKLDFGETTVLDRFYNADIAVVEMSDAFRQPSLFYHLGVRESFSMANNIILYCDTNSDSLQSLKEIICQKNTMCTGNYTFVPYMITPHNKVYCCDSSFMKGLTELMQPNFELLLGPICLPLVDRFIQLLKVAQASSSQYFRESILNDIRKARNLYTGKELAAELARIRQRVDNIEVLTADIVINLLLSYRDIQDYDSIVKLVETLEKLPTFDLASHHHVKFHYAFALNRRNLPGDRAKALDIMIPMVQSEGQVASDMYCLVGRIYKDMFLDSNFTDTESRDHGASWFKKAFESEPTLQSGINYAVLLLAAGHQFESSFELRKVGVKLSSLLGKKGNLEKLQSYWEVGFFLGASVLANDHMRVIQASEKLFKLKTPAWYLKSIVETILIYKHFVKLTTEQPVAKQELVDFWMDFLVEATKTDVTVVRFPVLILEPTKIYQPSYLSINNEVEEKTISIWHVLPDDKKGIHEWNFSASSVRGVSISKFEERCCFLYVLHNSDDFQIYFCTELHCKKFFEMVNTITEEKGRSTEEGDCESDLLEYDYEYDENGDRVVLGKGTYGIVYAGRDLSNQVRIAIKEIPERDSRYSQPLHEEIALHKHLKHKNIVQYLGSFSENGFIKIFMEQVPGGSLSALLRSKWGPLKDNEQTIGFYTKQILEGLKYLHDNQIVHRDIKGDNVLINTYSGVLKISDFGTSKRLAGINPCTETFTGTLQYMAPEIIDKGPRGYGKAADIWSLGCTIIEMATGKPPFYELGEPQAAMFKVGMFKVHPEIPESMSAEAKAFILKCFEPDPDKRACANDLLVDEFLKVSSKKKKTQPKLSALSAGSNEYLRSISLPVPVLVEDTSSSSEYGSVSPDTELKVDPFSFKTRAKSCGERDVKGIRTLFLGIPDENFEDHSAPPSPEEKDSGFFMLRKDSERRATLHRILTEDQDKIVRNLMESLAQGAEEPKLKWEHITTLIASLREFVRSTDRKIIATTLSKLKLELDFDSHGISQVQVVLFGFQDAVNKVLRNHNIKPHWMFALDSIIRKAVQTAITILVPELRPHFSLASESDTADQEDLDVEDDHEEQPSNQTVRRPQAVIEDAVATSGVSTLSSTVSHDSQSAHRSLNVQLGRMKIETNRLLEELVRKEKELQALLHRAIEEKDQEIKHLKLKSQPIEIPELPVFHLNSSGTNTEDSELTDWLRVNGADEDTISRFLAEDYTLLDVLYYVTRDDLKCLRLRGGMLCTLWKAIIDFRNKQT

[7] = molecular target: Serine/threonine-protein kinase PAK 4 (Homo sapiens, UniProt O96013)
Serine/threonine-protein kinase PAK 4, sequence (O96013 whole entry): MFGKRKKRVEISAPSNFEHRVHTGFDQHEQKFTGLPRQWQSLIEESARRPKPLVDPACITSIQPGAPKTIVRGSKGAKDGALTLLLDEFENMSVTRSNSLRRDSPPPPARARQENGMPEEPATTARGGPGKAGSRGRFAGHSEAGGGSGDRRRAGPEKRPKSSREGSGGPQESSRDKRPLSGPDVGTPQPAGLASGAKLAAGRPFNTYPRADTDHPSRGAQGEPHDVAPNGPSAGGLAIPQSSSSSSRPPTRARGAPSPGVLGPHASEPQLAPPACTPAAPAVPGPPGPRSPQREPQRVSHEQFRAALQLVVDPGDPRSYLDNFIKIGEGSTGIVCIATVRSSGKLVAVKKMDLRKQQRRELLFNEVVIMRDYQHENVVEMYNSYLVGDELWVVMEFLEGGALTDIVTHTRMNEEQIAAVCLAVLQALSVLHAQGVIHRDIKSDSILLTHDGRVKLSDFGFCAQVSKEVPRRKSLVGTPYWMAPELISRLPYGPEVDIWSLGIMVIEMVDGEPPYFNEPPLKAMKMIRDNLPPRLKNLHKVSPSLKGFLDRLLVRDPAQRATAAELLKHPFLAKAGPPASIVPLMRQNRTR
Note: in the data inactive means no Kd found up to 30 µM.

Structure (SMILES) | Kd [1] | Kd [2] | Kd [3] | Kd (Scaffold protein ILK) | Kd [4] | Kd [5] | Kd [6] | Kd [7]
O=S(=O)(c1cccc2c(O)nccc12)N1CCCNCC1 [HYDROXYFASUDIL] | > 30 µM (inactive) | > 30 µM (inactive) | > 30 µM (inactive) | > 30 µM (inactive) | > 30 µM (inactive) | > 30 µM (inactive) | > 30 µM (inactive) | > 30 µM (inactive)
COCCN1CCN(Cc2ccc(-c3n[nH]c4c3C(=O)c3c(NC(=O)NN5CCOCC5)cccc3-4)cc2)CC1 [RGB-286638] | > 30 µM (inactive) | > 30 µM (inactive) | > 30 µM (inactive) | > 30 µM (inactive) | > 30 µM (inactive) | > 30 µM (inactive) | > 30 µM (inactive) | > 30 µM (inactive)
CC[C@@](C)(Nc1ccnc(-c2c[nH]c3ncccc23)n1)C(=O)NCC(F)(F)F [DECERNOTINIB] | > 30 µM (inactive) | > 30 µM (inactive) | > 30 µM (inactive) | > 30 µM (inactive) | > 30 µM (inactive) | > 30 µM (inactive) | > 30 µM (inactive) | > 30 µM (inactive)
CCc1cc2c(cc1N1CCC(N3CCOCC3)CC1)C(C)(C)c1[nH]c3cc(C#N)ccc3c1C2=O [ALECTINIB] | > 30 µM (inactive) | > 30 µM (inactive) | > 30 µM (inactive) | > 30 µM (inactive) | > 30 µM (inactive) | > 30 µM (inactive) | > 30 µM (inactive) | > 30 µM (inactive)
COc1cc(Nc2ncc(F)c(Nc3ccc4c(n3)N(COP(=O)(O)O)C(=O)C(C)(C)O4)n2)cc(OC)c1OC [FOSTAMATINIB] | > 30 µM (inactive) | > 30 µM (inactive) | > 30 µM (inactive) | > 30 µM (inactive) | > 30 µM (inactive) | > 30 µM (inactive) | > 30 µM (inactive) | > 30 µM (inactive)
Cc1ccc(C(=O)Nc2ccc(Oc3cc4cnn(C)c4cc3-c3cn[nH]c3)c(F)c2)c(=O)n1-c1ccc(F)cc1 [MERESTINIB] | 3.26 µM (active) | > 30 µM (inactive) | > 30 µM (inactive) | > 30 µM (inactive) | > 30 µM (inactive) | > 30 µM (inactive) | > 30 µM (inactive) | > 30 µM (inactive)
O=C(NOC[C@H](O)CO)c1ccc(F)c(F)c1Nc1ccc(I)cc1F [MIRDAMETINIB] | > 30 µM (inactive) | > 30 µM (inactive) | > 30 µM (inactive) | > 30 µM (inactive) | > 30 µM (inactive) | > 30 µM (inactive) | > 30 µM (inactive) | > 30 µM (inactive)
C[C@@H]1COC(Nc2ccc3ncnc(Nc4ccc(OCc5nccs5)c(Cl)c4)c3c2)=N1 [VARLITINIB] | > 30 µM (inactive) | > 30 µM (inactive) | > 30 µM (inactive) | > 30 µM (inactive) | > 30 µM (inactive) | > 30 µM (inactive) | > 30 µM (inactive) | > 30 µM (inactive)
COc1cc2nccc(Oc3ccc(NC(=O)C4(C(=O)Nc5ccc(F)cc5)CC4)cc3)c2cc1OC [CABOZANTINIB] | > 30 µM (inactive) | 1.33 µM (active) | > 30 µM (inactive) | > 30 µM (inactive) | > 30 µM (inactive) | > 30 µM (inactive) | > 30 µM (inactive) | > 30 µM (inactive)
CNC(=O)c1cccc(-c2ccc3c(N4CCOC[C@@H]4C)nc(N4CCOC[C@@H]4C)nc3n2)c1 [VISTUSERTIB] | > 30 µM (inactive) | > 30 µM (inactive) | > 30 µM (inactive) | > 30 µM (inactive) | > 30 µM (inactive) | > 30 µM (inactive) | > 30 µM (inactive) | > 30 µM (inactive)
COc1ccc(-c2ccc3ncc4c(c3c2)n(-c2ccc(N3CCNCC3)c(C(F)(F)F)c2)c(=O)n4C)cn1 [BGT-226 FREE BASE] | > 30 µM (inactive) | > 30 µM (inactive) | > 30 µM (inactive) | > 30 µM (inactive) | > 30 µM (inactive) | > 30 µM (inactive) | > 30 µM (inactive) | > 30 µM (inactive)

Other lines, results leading:

Kd [1] | Kd [2] | Kd [3] | Kd (Scaffold protein ILK) | Kd [4] | Kd [5] | Kd [6] | Kd [7] | Structure (SMILES)
> 30 µM (inactive) | > 30 µM (inactive) | > 30 µM (inactive) | > 30 µM (inactive) | > 30 µM (inactive) | > 30 µM (inactive) | > 30 µM (inactive) | > 30 µM (inactive) | Cc1cc(C(=O)Nc2cc(Oc3ccc4nc(NC(=O)C5CC5)cn4n3)ccc2C)n(C)n1 [TAK-593]
> 30 µM (inactive) | > 30 µM (inactive) | > 30 µM (inactive) | > 30 µM (inactive) | > 30 µM (inactive) | > 30 µM (inactive) | > 30 µM (inactive) | > 30 µM (inactive) | Cn1c(=O)c(F)c(Nc2ccc(I)cc2F)c2c(=O)n(C[C@@H](O)CO)cnc21 [TAK-733]
> 30 µM (inactive) | > 30 µM (inactive) | > 30 µM (inactive) | > 30 µM (inactive) | > 30 µM (inactive) | > 30 µM (inactive) | > 30 µM (inactive) | > 30 µM (inactive) | COc1cccc2cc(-c3nc([C@H]4CC[C@H](C(=O)O)CC4)n4ncnc(N)c34)[nH]c12 [OSI-027]
> 30 µM (inactive) | > 30 µM (inactive) | > 30 µM (inactive) | > 30 µM (inactive) | > 30 µM (inactive) | > 30 µM (inactive) | > 30 µM (inactive) | > 30 µM (inactive) | c1cc(OCCN2CCCCC2)cc(-c2n[nH]c3ccc(-c4nc[nH]n4)cc23)c1 [CC-401]

From ChEMBL document CHEMBL3991601, “The target landscape of clinical kinase drugs” (Science, 2017)
